Assay results published in patent US5304474A, “Hydrophobic peptide esters and amides” (Board of Regents, The University of Texas System, priority 1991, dated 1994).
Peptide text beside a SMILES is read from it.

Assays:
[1] = system: [^3 H]Leu-Leu-OMe uptake by PBL (facilitated transport); assay: Competitive inhibition of [3H]Leu-Leu-OMe uptake; assay type: cell-based, human; conditions: for inhibition at 250 µM: Homo sapiens, unlabeled compound 250 microM
Description: (§1) Human peripheral blood lymphocytes (PBL) were incubated in the presence of [^3 H]labeled Leu-Leu-OMe at 22° C. for varying lengths of time. The incubation mixture was then centrifuged through silicone oil to separate the cells from any unbound or non-internalized [^3 HLeu-Leu-OMe. […] At 37° C., levels of [^3 H]Leu-Leu-OMe accumulation by PBL were increased above those seen at 22° C. (see Table 4).

[2] = biological target: T1, dipeptidyl peptidase I (DPPI) (Bos taurus, UniProt Q3ZCJ8); assay: Dipeptidyl peptidase I catalyzed lysis of human RBC; assay type: cell-based, bovine; conditions: FIG. 12, FIG. 13
Description: The following experiments were carried out to determine whether DPPI could generate a lytic product from Leu-Leu-OMe. In the experiment detailed in FIG. 12, ^51 Cr-labeled human erythrocytes (RBC) were incubated with varying concentrations of Leu-Leu-OMe alone or in the presence of purified bovine DPPI.
In the experiments detailed in FIG. 13, ^51 Cr-labeled RBC's were exposed to various dipeptide esters or amides in the presence or absence of purified DPPI. […] The first observation is probably related to the inability of this enzyme to catalyze transpeptidation of peptide esters containing D-stereoisomers of amino acids. The latter observations are likely to be related to the fact that polymers of Ser-Leu or Leu-Tyr are not hydrophobic and therefore unlikely to enter and disrupt cell membranes.

[3] = system: natural killer cells (NK); assay: NK function: lysis of K562 target cells (51Cr release) after preincubation of lymphocytes with compound; conditions: for NK toxicity / effect on NK function, in words: lymphocytes exposed 15 minutes at room temperature (FIG. 4, FIG. 5)
Description: PBM were separated from heparinized venous blood of healthy donors by centrifugation over sodium diatrizoate-Ficoll gradients (Isolymph, Gallard-Schlesinger Chemical Mfg. Corp., Carle Place, N.Y.).
All cell exposures to the amino acids, dipeptides or their methyl esters were carried out by suspending cells in Dulbecco's phosphate buffered saline (PBS) and incubating them at room temperature with the reagent at the indicated concentration and time interval.
Percent of control cytotoxicity was calculated using the formula: [formula]

[4] = Activity and appearance of mice post-injection; assay type: in vivo, C3H/HeJ mice; conditions: 15-30 minutes post-injection, about 1×10^-3 moles per kg tail-vein
Description: (§2) Leu-Leu-OMe or Leu-Phe-OMe were suspended in PBS, pH 7.4. Then individual C3H/HeJ mice (25 gram size) were administered by tail-vein injection either 2.5×10^-5 moles (6.5 mg) of Leu-Leu-OMe, 2.5×10^-5 moles (7.1 mg) Leu-Phe-OMe, or an equal volume of the PBS diluent, this dose being about 1×10^-3 moles per kg. […] Subsequent to this quiescent period no difference in activity or appearance in the mice was noted. Two hours post-injection, the mice were sacrificed and their spleen cells were assayed for NK function in a standard 4 hour assay against YAC-1 tumor targets. In all mice, total cell recovery ranged […] spleen cells per animal. […] Thus, Leu-Leu-OMe or Leu-Phe-OMe caused a greater than 75% decrease in splenic lytic activity against YAC-1 tumor targets.

[5] = system: splenic NK function (YAC-1 tumor targets); assay: Spleen cell NK function against YAC-1 after tail-vein injection; assay type: in vivo, C3H/HeJ mice
Description: as §2

[6] = Conversion of [3H]Leu-Leu-OMe in cells to a product which precipitates in 10% TCA; assay type: in vitro ADME, human; conditions: for Fractional Conversion of [^3 H]Leu--Leu--OMe to a product which Precipitates in 10% TCA: Intact NK, T8 Cells
Description: Additional experiments, detailed in Table 7, were performed to assess the metabolic fate of [^3 H]Leu-Leu-OMe within PBL. Cells were incubated with [^3 H]Leu-Leu-OMe for 15 minutes at 22° C. to permit uptake of this compound and then were washed. If the cells were immediately lysed and 10% trichloroacetic acid (TCA) was added to precipitate higher molecular weight cell proteins and nucleic acids, essentially all of the [^3 H]label remained in the supernatant as anticipated for a small molecular weight peptide which is soluble in 10% TCA.
In experiment 1 of Table 8 non-adherent peripheral blood lymphocytes were incubated in the presence or absence of 250 micro-M unlabeled Leu-Leu-OMe for 15 minutes and then cultured overnight at 37° C. This form of exposure to Leu-Leu-OMe has been shown previously herein to result inloss of NK cells and a substantial fraction of CD8(+) T cells, whereas the majority of CD4(+) lymphocytes are resistant to any toxic effects of this agent and remain viable and functionally intact. […] However, when production of a product which precipitated in 10% TCA was assessed following a second incubation at 37° C. for 30 minutes, it was noted that the LLMe resistant subset of lymphocytes produced almost no detectable amounts of this as yet unidentified product.
In experiment 2 (Table 8), PBL were divided into a CD4(+) T cell (T4 cell)-enriched population and a T8, NK-enriched population by staining with anti-CD4 or anti-CD8 monoclonal antibodies and panning on goat anti-mouse coated petri dishes to enrich for the unstained lymphocyte subsets as previously described (see prior Examples and J. Immunol. 1986 136:1038-1048). Again, it was noted that T4 cells took up less [^3 H]Leu-Leu-OMe during an initial incubation than did a population of lymphocytes enriched for T8 and NK cells. However, the differences in production of a product which precipitated in 10% TCA were even more dramatic. Whereas initial [^3 H]Leu-Leu-Me uptake by T4 cells was approximately 53% of that seen with an equal number of T8 and NK cells, the amount of [^3 H]label appearing in a 10% TCA precipitate of the T4 cell sonicate after a subsequent 30 minute incubation was less than 7% of the quantity noted in the TCA precipitable of T8 and NK cell sonicates. Furthermore, little or no TCA insoluble product was produced by other non-lymphoid cell types such as dermal fibroblasts or a renal cell carcinoma line, Cur, which have been previously noted to be resistant to the toxicity of Leu-Leu-OMe (J. Immunol 1986: 136:1038-1048). […] As proteinase K digestion removed this product, it was likely to be a larger peptide or protein into which [^3 H]Leu had been incorporated.

[7] = system: peripheral blood lymphocytes (PBL); assay: [3H]Leu-Leu-OMe uptake/binding by lymphocytes; assay type: in vitro ADME, human
Description: as §1

[8] = biological target: T1, dipeptidyl peptidase I (DPPI); assay: Polymerization of [3H]Leu-Leu-OMe to a TCA insoluble product by purified enzyme; assay type: biochemical, bovine
Excerpt: When R1 and R2 are amino acids with nonpolar side groups, such products are very hydrophobic and water insoluble (J. Biol. Chem. 1952; 195:645-656). […] Of note, much lower extracellular concentrations of Leu-Leu-OMe are required for production of a similar product within NK and T8 cells.

[9] = system: natural killer cells (NK); conditions: previous experiments (Thiele et al. 1985); cited from earlier work
[10] = Expt. 1, LLMe Resistant Lymphocytes
[11] = Expt. 1, Non-adherent Lymphocytes
[12] = second 37° C. incubation 15 minutes
[13] = second 37° C. incubation 30 minutes
[14] = second 37° C. incubation 60 minutes

T1 sequence (Q3ZCJ8 231-394 limits assumed): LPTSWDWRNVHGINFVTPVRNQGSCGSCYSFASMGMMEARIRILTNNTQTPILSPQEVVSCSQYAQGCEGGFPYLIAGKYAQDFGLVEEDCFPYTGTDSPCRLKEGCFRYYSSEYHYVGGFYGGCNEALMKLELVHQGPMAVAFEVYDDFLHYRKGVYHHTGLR
T1 sequence (Q3ZCJ8 25-134 limits assumed): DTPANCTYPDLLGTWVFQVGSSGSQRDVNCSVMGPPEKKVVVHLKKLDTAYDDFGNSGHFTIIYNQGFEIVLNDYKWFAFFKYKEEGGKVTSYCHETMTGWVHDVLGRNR
T1 sequence (Q3ZCJ8 395-463 limits assumed): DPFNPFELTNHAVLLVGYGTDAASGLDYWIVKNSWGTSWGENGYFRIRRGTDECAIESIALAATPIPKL

COC(=O)[C@@H](CC(C)C)NC(=O)[C@H](N)CC(C)C [D-Leu-D-Leu-OMe]
competitive inhibition of [3H]Leu-Leu-OMe uptake, in words [1]: do not competitively inhibit PBL uptake of L-Leu-L-Leu-OMe
inhibition at 250 µM ([1]; [3H]Leu-Leu-OMe 10 microM (Table 5)): 7%
RBC lysis in the presence of purified DPPI, in words [2]: unable to produce a membrane active metabolite
effect on Leu-Leu-OMe mediated NK toxicity ([3]; added with Leu-Leu-OMe): had no effect on Leu-Leu-OMe mediated NK toxicity
NK toxicity / effect on NK function, in words [3]: had no inhibitory effect

COC(=O)[C@H](Cc1ccccc1)NC(=O)[C@@H](N)CC(C)C [Leu-Phe-OMe] (H-Leu-Phe-OMe)
inhibition at 250 µM ([1]; [3H]Leu-Leu-OMe 10 microM (Table 6)): 72%
activity and appearance post-injection [4]: exhibited decreased activity and an apparent increase in sleep
Percent lysis of target cells ([5]; E:T 25:1, 2.5×10^-5 moles per mouse tail-vein, 2 hours post-injection, Control 8.29): 3.89%
Percent lysis of target cells ([5]; E:T 50:1, same dosing, Control 12.88): 4.68%
Percent lysis of target cells ([5]; E:T 100:1, same dosing, Control 20.60): 6.91%
Percent lysis of target cells ([5]; E:T 200:1, same dosing, Control 29.29): 11.91%
decrease in splenic lytic activity against YAC-1 tumor targets ([5]; about 1×10^-3 moles per kg tail-vein): greater than 75%
NK Toxicity (LD50) ([3]; concentration which results in 50% loss of human NK function, PBL 15 minutes at 22° C.): 29 micro-M
NK toxicity / effect on NK function, in words [3]: produced concentration-dependent ablation of NK function at concentrations comparable to those at which Leu-Leu-OMe was active

COC(=O)[C@H](CC(C)C)NC(=O)[C@@H](N)CC(C)C [[^3 H]Leu--Leu--OMe]
Incorporation, Initial [6, 10]: 7,184 cpm
Incorporation, TCA Precipitate [6, 10]: 50 cpm
TCA Precipitate (% of initial) [6, 10]: 0.7%
Incorporation, Initial [6, 11]: 27,870 cpm
TCA Precipitate (% of initial) [6, 11]: 8.4%
Incorporation, TCA Precipitate ([6]; Expt. 1, Non-adherent Lymphocytes, 30 minutes 37° C.): 2,341 cpm
Incorporation, Initial ([6]; Expt. 2, Fibroblasts): 63,229 cpm
Incorporation, TCA Precipitate ([6]; Expt. 2, Fibroblasts): 293 cpm
TCA Precipitate (% of initial) ([6]; Expt. 2, Fibroblasts): 0.5%
Incorporation, Initial ([6]; Expt. 2, Renal Cell Carcinoma): 35,855 cpm
Incorporation, TCA Precipitate ([6]; Expt. 2, Renal Cell Carcinoma): 267 cpm
TCA Precipitate (% of initial) ([6]; Expt. 2, Renal Cell Carcinoma): 0.7%
Incorporation, Initial ([6]; Expt. 2, T4 Cells): 12,200 cpm
Incorporation, TCA Precipitate ([6]; Expt. 2, T4 Cells): 207 cpm
TCA Precipitate (% of initial) ([6]; Expt. 2, T4 Cells): 1.7%
Incorporation, Initial ([6]; Expt. 2, T8, NK Cells): 22,753 cpm
Incorporation, TCA Precipitate ([6]; Expt. 2, T8, NK Cells): 3,208 cpm
TCA Precipitate (% of initial) ([6]; Expt. 2, T8, NK Cells): 14.1%
initial uptake by T4 cells relative to equal number of T8 and NK cells ([6]; Expt. 2 of Table 8): approximately 53%
Fractional Conversion of [^3 H]Leu--Leu--OMe to a product which Precipitates in 10% TCA ([6]; 1 micro-M): < 0.1%
Fractional Conversion of [^3 H]Leu--Leu--OMe to a product which Precipitates in 10% TCA ([6]; 10 micro-M): < 0.2%
Fractional Conversion of [^3 H]Leu--Leu--OMe to a product which Precipitates in 10% TCA ([6]; 100 micro-M): 11.1%
Fractional Conversion of [^3 H]Leu--Leu--OMe to a product which Precipitates in 10% TCA ([6]; 250 micro-M): 23.2%
[^3 H]Leu--Leu--OMe Total ([6]; PBL, 15 minutes 22° C., second 37° C. incubation 0): 61.4 cpm × 10^-3
label in TCA precipitate of T4 cell sonicate relative to T8 and NK cell sonicates ([6]; after 30 minute incubation): less than 7%
[^3 H]Leu--Leu--OMe TCA Prec. ([6]; second 37° C. incubation 0): 0.5 cpm × 10^-3
[^3 H]Leu--Leu--OMe TCA Prec. [6, 12]: 6.8 cpm × 10^-3
[^3 H]Leu--Leu--OMe Total [6, 12]: 24.9 cpm × 10^-3
[^3 H]Leu--Leu--OMe TCA Prec. [6, 13]: 12.7 cpm × 10^-3
[^3 H]Leu--Leu--OMe Total [6, 13]: 20.6 cpm × 10^-3
[^3 H]Leu--Leu--OMe TCA Prec. [6, 14]: 10.7 cpm × 10^-3
[^3 H]Leu--Leu--OMe Total [6, 14]: 12.7 cpm × 10^-3
[^3 H]Leu--Leu--OMe Uptake/Binding ([7]; Expt. 1, 0° C.): 0.05 micro-moles/10^6 cells
[^3 H]Leu--Leu--OMe Uptake/Binding ([7]; Expt. 1, 22° C.): 0.77 micro-moles/10^6 cells
[^3 H]Leu--Leu--OMe Uptake/Binding ([7]; Expt. 2, 4° C.): 0.02 micro-moles/10^6 cells
[^3 H]Leu--Leu--OMe Uptake/Binding ([7]; Expt. 2, 22° C.): 0.31 micro-moles/10^6 cells
[^3 H]Leu--Leu--OMe Uptake/Binding ([7]; Expt. 2, 37° C.): 0.52 micro-moles/10^6 cells
Fractional Conversion of [^3 H]Leu--Leu--OMe to a product which Precipitates in 10% TCA ([8]; 1 micro-M): < 0.01%
Fractional Conversion of [^3 H]Leu--Leu--OMe to a product which Precipitates in 10% TCA ([8]; 10 micro-M): 0.03%
Fractional Conversion of [^3 H]Leu--Leu--OMe to a product which Precipitates in 10% TCA ([8]; 100 micro-M): 0.08%
Fractional Conversion of [^3 H]Leu--Leu--OMe to a product which Precipitates in 10% TCA ([8]; 1000 micro-M): 20.0%

COC(=O)[C@@H](N)C(C)C [Val-OMe]
deletion of NK function from human PBM [9]: did not delete NK function from human PBM
